Each structure is given as a SMILES string.

Here are results for 48 compounds from patent US8686018B2, “Pharmaceutical composition” (Eisai R&D Management Co., Ltd., priority 2010, dated 2014).

T1 sequence (P35408 whole entry): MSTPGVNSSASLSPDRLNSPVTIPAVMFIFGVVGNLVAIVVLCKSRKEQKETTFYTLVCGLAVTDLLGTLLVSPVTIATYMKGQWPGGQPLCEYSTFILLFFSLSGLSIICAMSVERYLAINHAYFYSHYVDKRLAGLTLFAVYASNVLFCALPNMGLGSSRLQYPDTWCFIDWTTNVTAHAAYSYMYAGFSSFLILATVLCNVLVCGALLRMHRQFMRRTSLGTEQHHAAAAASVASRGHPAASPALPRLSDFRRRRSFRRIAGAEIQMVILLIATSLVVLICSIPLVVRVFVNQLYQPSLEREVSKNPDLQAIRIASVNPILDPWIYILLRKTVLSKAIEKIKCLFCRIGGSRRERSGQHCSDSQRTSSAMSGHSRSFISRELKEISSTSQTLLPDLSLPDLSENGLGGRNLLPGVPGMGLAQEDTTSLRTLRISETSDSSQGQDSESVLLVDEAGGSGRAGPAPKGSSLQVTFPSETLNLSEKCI

The first assay addresses T1, EP4 (Homo sapiens (Human), UniProt P35408). The assay is described as follows: CRE-PLAP reporter assay. It is filed as cell-based. The settings on record: SE302 (HEK/293 clone) cells with endogenous EP4, stimulated with 3 ng/mL PGE2 overnight. Here is the method: Cells were maintained in DMEM/F12 (50:50) (MediaTech) supplemented with 10% FBS (Tissue Culture Biologicals) plus penicillin/streptomycin. When used for assays, cells were plated in a 96-well plate at 2×10^4 cells/100 μL/well in serum-free assay medium (DMEM/F12 supplemented with 0.1% BSA plus penicillin/streptomycin) and incubated for 4-6 h.
Exemplary compounds of the present invention were assayed according to the methods set forth above in the CRE-PLAP reporter assay described above.
The IC50 is the concentration at which inhibition is half-maximal. Regarding `Cc1nn(C)c(Oc2ccc(Cl)cc2)c1C(=O)N[C@@H](C)c1ccc(C(=O)O)cc1` [ER-880663-00], inhibition was half-maximal at 0.619 µM (IC50).

`C[C@H](NC(=O)c1c(C(F)(F)F)nn(C)c1Oc1cccc(Cl)c1)c1ccc(C(=O)O)cc1` [ER-885289-00]: half-maximal inhibition (IC50) was put at 0.045 µM.

Turning to `Cc1nn(C)c(Oc2cccc(C(F)(F)F)c2)c1C(=O)N[C@@H](C)c1ccc(C(=O)O)cc1` [ER-885290-00], inhibition was half-maximal at 0.018 µM (IC50).

In turn, `C[C@H](NC(=O)c1c(C(F)(F)F)nn(C)c1Oc1cccc(C(F)(F)F)c1)c1ccc(C(=O)O)cc1` [ER-885291-00] had an IC50 of 0.027 µM.

`Cc1nn(C)c(Oc2ccc(F)cc2)c1C(=O)N[C@@H](C)c1ccc(C(=O)O)cc1` [ER-885302-00] returned an IC50 of 0.261 µM.

Consider `Cc1nn(C)c(Oc2ccc(C(F)(F)F)cc2)c1C(=O)N[C@@H](C)c1ccc(C(=O)O)cc1` [ER-885311-00], for which half-maximal inhibition (IC50) was put at 0.273 µM.

`Cc1nn(C)c(Oc2ccc(Cl)c(Cl)c2)c1C(=O)N[C@@H](C)c1ccc(C(=O)O)cc1` [ER-885716-00] displayed an IC50 of 0.092 µM.

As to `Cc1nn(C)c(Oc2cccc(F)c2)c1C(=O)N[C@@H](C)c1ccc(C(=O)O)cc1` [ER-885717-00], the IC50 was 0.974 µM.

In the case of `Cc1nn(C)c(Oc2ccc(F)c(F)c2)c1C(=O)N[C@@H](C)c1ccc(C(=O)O)cc1` [ER-885718-00], the 50% inhibitory concentration (IC50) is 0.467 µM.

As to `Cc1nn(C)c(Oc2cccc(F)c2F)c1C(=O)N[C@@H](C)c1ccc(C(=O)O)cc1` [ER-885719-00], the IC50 was found to be 2.67 µM.

Regarding `Cc1nn(C)c(Oc2cc(F)ccc2F)c1C(=O)N[C@@H](C)c1ccc(C(=O)O)cc1` [ER-885720-00], the midpoint of inhibition, the IC50, lay at 2.22 µM.

`Cc1nn(C)c(Oc2cc(Cl)cc(Cl)c2)c1C(=O)N[C@@H](C)c1ccc(C(=O)O)cc1` [ER-885721-00] yielded a half-maximal inhibitory concentration (IC50) of 0.846 µM.

`Cc1nn(C)c(Oc2cccc(C(F)(F)F)c2)c1C(=O)NC1(c2ccc(C(=O)O)cc2)CC1` [ER-885740-00] yielded a concentration for half-maximal inhibition (IC50) of 0.012 µM.

In turn, `Cn1nc(C(F)(F)F)c(C(=O)NC2(c3ccc(C(=O)O)cc3)CC2)c1Oc1cccc(C(F)(F)F)c1` [ER-885741-00] displayed an IC50 of 0.013 µM.

`Cn1nc(C(F)(F)F)c(C(=O)NC2(c3ccc(C(=O)O)cc3)CC2)c1Oc1cccc(Cl)c1` [ER-885743-00] registered a half-inhibitory concentration (IC50) of 0.038 µM.

Compound `Cc1nn(C)c(Oc2cccc(Cl)c2)c1C(=O)N[C@@H](C)c1ccc(C(=O)O)cc1` [ER-885744-00] returned a 50% inhibitory concentration (IC50) of 0.168 µM.

Compound `Cc1ccc(Oc2c(C(=O)N[C@@H](C)c3ccc(C(=O)O)cc3)c(C)nn2C)cc1` [ER-885749-00] showed a 50% inhibitory concentration (IC50) of 0.451 µM.

In turn, `Cc1nn(C)c(Oc2cccc(Cl)c2Cl)c1C(=O)N[C@@H](C)c1ccc(C(=O)O)cc1` [ER-886022-00] returned a 50% inhibitory concentration (IC50) of 0.719 µM.

For the compound `Cc1nn(C)c(Oc2cc(F)cc(Cl)c2)c1C(=O)N[C@@H](C)c1ccc(C(=O)O)cc1` [ER-886024-00], 0.637 µM corresponded to half-maximal inhibition (IC50).

For the compound `Cc1nn(C)c(Oc2cc(F)ccc2Cl)c1C(=O)N[C@@H](C)c1ccc(C(=O)O)cc1` [ER-886025-00], the concentration for half-maximal inhibition (IC50) turned out to be 4.91 µM.

With `Cc1cccc(Oc2c(C(=O)N[C@@H](C)c3ccc(C(=O)O)cc3)c(C)nn2C)c1` [ER-886032-00], inhibition was half-maximal at 0.356 µM (IC50).

`Cc1cc(C)cc(Oc2c(C(=O)N[C@@H](C)c3ccc(C(=O)O)cc3)c(C)nn2C)c1` [ER-886033-00] registered a 50% inhibitory concentration (IC50) of 2.12 µM.

Consider `COc1cc(OC)cc(Oc2c(C(=O)N[C@@H](C)c3ccc(C(=O)O)cc3)c(C)nn2C)c1` [ER-886035-00], for which the IC50 is 3.66 µM.

Take `C[C@H](NC(=O)c1c(C(F)F)nn(C)c1Oc1cccc(Cl)c1)c1ccc(C(=O)O)cc1` [ER-886045-00]: the IC50 stood at 0.018 µM.

As to `Cc1nn(C)c(Oc2cccc(OC(F)(F)F)c2)c1C(=O)N[C@@H](C)c1ccc(C(=O)O)cc1` [ER-886061-00], the half-inhibitory concentration (IC50) came out at 0.089 µM.

`C[C@H](NC(=O)c1c(C(F)(F)F)nn(C)c1Oc1cccc(F)c1)c1ccc(C(=O)O)cc1` [ER-886072-00] showed an IC50 of 0.132 µM.

Turning to `C[C@H](NC(=O)c1c(C(F)(F)F)nn(C)c1Oc1ccc(F)c(F)c1)c1ccc(C(=O)O)cc1` [ER-886073-00], the midpoint of inhibition, the IC50, lay at 0.109 µM.

The compound `C[C@H](NC(=O)c1c(C(F)(F)F)nn(C)c1Oc1ccc(Cl)c(Cl)c1)c1ccc(C(=O)O)cc1` [ER-886074-00] came in with an IC50 of 0.01 µM.

The compound `Cc1nn(C)c(Oc2cccc(Cl)c2)c1C(=O)NC1(c2ccc(C(=O)O)cc2)CC1` [ER-886077-00] gave a concentration for half-maximal inhibition (IC50) of 0.085 µM.

Regarding `Cn1nc(C(F)F)c(C(=O)NC2(c3ccc(C(=O)O)cc3)CC2)c1Oc1cccc(C(F)(F)F)c1` [ER-886078-00], the concentration for half-maximal inhibition (IC50) turned out to be 0.009 µM.

On to `Cc1nn(C)c(Oc2cccc(OC(F)F)c2)c1C(=O)N[C@@H](C)c1ccc(C(=O)O)cc1` [ER-886080-00], for which half-maximal inhibition (IC50) was put at 0.058 µM.

Regarding `C[C@H](NC(=O)c1c(C(F)(F)F)nn(C)c1Oc1cccc(OC(F)F)c1)c1ccc(C(=O)O)cc1` [ER-886082-00], the IC50 was 0.088 µM.

For `C[C@H](NC(=O)c1c(C(F)F)nn(C)c1Oc1cccc(OC(F)F)c1)c1ccc(C(=O)O)cc1` [ER-886090-00], the IC50 was found to be 0.017 µM.

Consider `C[C@H](NC(=O)c1c(C(F)F)nn(C)c1Oc1cccc(C(F)F)c1)c1ccc(C(=O)O)cc1` [ER-887480-00], for which the IC50 came out at 0.051 µM.

Take `Cc1nn(C)c(Oc2cccc(C(F)F)c2)c1C(=O)N[C@@H](C)c1ccc(C(=O)O)cc1` [ER-887495-00]: the midpoint of inhibition, the IC50, lay at 0.219 µM.

With `C[C@H](NC(=O)c1c(C(F)(F)F)nn(C)c1Oc1cccc(C(F)F)c1)c1ccc(C(=O)O)cc1` [ER-887995-00], half-maximal inhibition (IC50) required 0.187 µM.

In the case of `C[C@H](NC(=O)c1c(C(F)F)nn(C)c1Oc1ccc(Cl)c(Cl)c1)c1ccc(C(=O)O)cc1` [ER-888024-00], 0.031 µM corresponded to half-maximal inhibition (IC50).

On to `Cn1nc(C(F)F)c(C(=O)NC2(c3ccc(C(=O)O)cc3)CC2)c1Oc1ccc(Cl)c(Cl)c1` [ER-888348-00], for which the 50% inhibitory concentration (IC50) amounted to 0.017 µM.

In turn, `Cn1nc(C(F)F)c(C(=O)NC2(c3ccc(C(=O)O)cc3)CC2)c1Oc1cccc(Cl)c1` [ER-888355-00] gave an IC50 of 0.157 µM.

`Cn1nc(C(F)(F)F)c(C(=O)NC2(c3ccc(C(=O)O)cc3)CC2)c1Oc1ccc(Cl)c(Cl)c1` [ER-888363-00] yielded a 50% inhibitory concentration (IC50) of 0.008 µM.

`Cn1nc(C(F)(F)F)c(C(=O)NC2(c3ccc(C(=O)O)cc3)CC2)c1Oc1ccc(C(F)(F)F)cc1` [ER-888364-00] returned an IC50 of 0.012 µM.

Turning to `C[C@H](NC(=O)c1c(C(F)(F)F)nn(C)c1Oc1ccc(C(F)(F)F)cc1)c1ccc(C(=O)O)cc1` [ER-888365-00], the IC50 came to 0.028 µM.

The compound `Cn1nc(C(F)F)c(C(=O)NC2(c3ccc(C(=O)O)cc3)CC2)c1Oc1ccc(C(F)(F)F)cc1` [ER-888366-00] yielded a half-maximal inhibitory concentration (IC50) of 0.015 µM.

The compound `C[C@H](NC(=O)c1c(C(F)F)nn(C)c1Oc1ccc(C(F)(F)F)cc1)c1ccc(C(=O)O)cc1` [ER-888367-00] registered an IC50 of 0.023 µM.

`Cn1nc(C(F)(F)F)c(C(=O)NC2(c3ccc(C(=O)O)cc3)CC2)c1Oc1ccc(Cl)cc1` [ER-888368-00] returned a half-maximal inhibitory concentration (IC50) of 0.018 µM.

In turn, `C[C@H](NC(=O)c1c(C(F)(F)F)nn(C)c1Oc1ccc(Cl)cc1)c1ccc(C(=O)O)cc1` [ER-888369-00] gave an IC50 of 0.089 µM.

`Cn1nc(C(F)F)c(C(=O)NC2(c3ccc(C(=O)O)cc3)CC2)c1Oc1ccc(Cl)cc1` [ER-888370-00] showed an IC50 of 0.035 µM.

For `C[C@H](NC(=O)c1c(C(F)F)nn(C)c1Oc1ccc(Cl)cc1)c1ccc(C(=O)O)cc1` [ER-888371-00], inhibition was half-maximal at 0.089 µM (IC50).

For another assay, the target named is T1, EP4. The assay is described as follows: Radioligand EP4 receptor binding assay. The settings on record: Chem-1 cell membranes overexpressing human EP4, [3H]-PGE2 displacement. The method, then:
The radioligand EP4 binding assay was performed using ChemiScreen recombinant human EP4 receptor membrane preparations from Millipore, according to manufacturer's instructions. Briefly, membranes prepared from Chem-1 cells overexpressing human EP4 cDNA (Millipore) were mixed with 1.8 nmol.L^−1 [^3H]-PGE2 and 5 μmol.L^−1 unlabelled PGE2 in the presence or absence of various concentrations of testing compounds in binding buffer (50 mmol.L^−1 HEPES, pH 7.4, 5 mmol.L^−1 MgCl2, 1 mmol.L^−1 CaCl2, 0.2% BSA) in a nonbinding 96-well plate, and incubated for 1-2 h at room temperature. Prior to filtration, a GF/C 96-well filter plate was coated with 0.33% polyethyleneimine for 30 min, then washed with 50 mmol.L^−1 HEPES, pH 7.4, 0.5% BSA. Binding reactions were transferred to the filter plate, and washed 3 times with Wash Buffer (1 mL per well per wash). The plate was dried and radioactivity counted.
The Ki is a measure of affinity in units of concentration, obtained from inhibition or displacement. The low end stands for a stronger hold on the target, the high end for a looser hold on the target. Compound `Cc1nn(C)c(Oc2cccc(C(F)(F)F)c2)c1C(=O)N[C@@H](C)c1ccc(C(=O)O)cc1` [ER-885290-00] had an inhibitory constant (Ki) of 0.014 µM.

`Cc1nn(C)c(Oc2cccc(C(F)(F)F)c2)c1C(=O)NC1(c2ccc(C(=O)O)cc2)CC1` [ER-885740-00]: the Ki was 0.043 µM.

As for `Cn1nc(C(F)(F)F)c(C(=O)NC2(c3ccc(C(=O)O)cc3)CC2)c1Oc1cccc(C(F)(F)F)c1` [ER-885741-00], the Ki is 0.016 µM.

`C[C@H](NC(=O)c1c(C(F)F)nn(C)c1Oc1cccc(Cl)c1)c1ccc(C(=O)O)cc1` [ER-886045-00] came in with a Ki of 0.05 µM.

As to `C[C@H](NC(=O)c1c(C(F)(F)F)nn(C)c1Oc1ccc(Cl)c(Cl)c1)c1ccc(C(=O)O)cc1` [ER-886074-00], the Ki came out at 0.013 µM.

On to `Cn1nc(C(F)F)c(C(=O)NC2(c3ccc(C(=O)O)cc3)CC2)c1Oc1cccc(C(F)(F)F)c1` [ER-886078-00], for which the Ki was determined as 0.008 µM.

`C[C@H](NC(=O)c1c(C(F)F)nn(C)c1Oc1cccc(OC(F)F)c1)c1ccc(C(=O)O)cc1` [ER-886090-00]: the affinity, expressed as Ki, was 0.01 µM.

In turn, `C[C@H](NC(=O)c1c(C(F)F)nn(C)c1Oc1cccc(C(F)F)c1)c1ccc(C(=O)O)cc1` [ER-887480-00] returned a Ki of 0.026 µM.
